Patent US5753656A, “Method for treating spinocerebellar degeneration” (Suntory Limited, priority 1994, dated 1998)
“Also recorded” adds a separate entry of the source. Structures can show the parent of a compound that is named as a salt.

Experiments:
[1] = KOKAI No. 25323/84; cited from earlier work
[2] = Acute oral toxicity (LD50) in rats; assay type: in vivo
Source text: As the active ingredients provided by the present invention for treatment of spinocerebellar degeneration, (6R)-L-erythro-5,6,7,8-tetrahydrobiopterin (BH4) and its salts are most preferable, but analogous compounds such as (6R,S)-5,6,7,8-tetrahydrobiopterin, 1',2'-diacetyl-5, 6,7,8-tetrahydrobiopterin, sepiapterin, 6-methyl-5,6,7,8-tetrahydropterin or 6-phenyl-5,6,7,8-tetrahydropterin and their salts may also be acceptable. However, needless to say, BH4 which naturally exists in the body is preferable. […] The other compounds belonging to formula (I) likewise have little or no acute toxicity.

[3] = test system: Machado-Joseph disease (patients); assay: Double-blind crossover trial of BH4: neurological examination; assay type: in vivo, humans; conditions: 1 mg/kg once daily, 10 days
Method: (§1) To 5 patients with Machado-Joseph disease listed in Table 1, a placebo (ascorbic acid) and BH4 were administered in a double-blind clinical trial with the procedure as follows:
(§2) Three patients from three families diagnosed as "clinically definite family" and two patients from two families diagnosed as "probable family" according to the diagnostic criteria by Sakai (Sakai, T., ditto) were selected.
(§3) The patients received 1 mg/kg(b.w.) of BH4 or ascorbic acid in capsules once daily, after lunch. The chemical form of BH4 given was BH4 dihydrochloride in Cases 1 to 3 and 5 and (6R,S)-L-erythro-5, 6,7,8-tetrahydrobiopterin dihydrochloride in Case 4.
The examination was performed in respect of muscle tonus of the extremities, deep reflexes, severity of dystonia, disturbance of stationary balance on standing, finger-to-nose test, finger tapping test, diadochokinetic test, heel-to-knee tapping test, and dysarthria.
(§4) A double-blind, placebo-controlled crossover design was adopted.
(§5) Data were analyzed using paired t-test.

[4] = test system: Machado-Joseph disease (patients); assay: Double-blind crossover trial of BH4: subjective improvement; assay type: in vivo, humans; conditions: 1 mg/kg once daily, 10 days
Method: as §1, §2, §3
Each patient was asked with respect to six symptomatic parameters: dysarthria, dysphagia, disturbance of dexterity, disturbance of stationary balance on standing, disturbance of gait, and overall sense of general well-being.
as §4, §5

[5] = test system: Machado-Joseph disease (patients); assay: Double-blind crossover trial of BH4: overall conclusion on neurologic symptoms; assay type: in vivo, humans; conditions: 1 mg/kg once daily, 10 days, oral capsules
Method: as §1, §2, §3
Each patient was assessed by the following three methods:
as §4, §5

SMILES: C[C@H](O)[C@H](O)C1CNc2nc(N)[nH]c(=O)c2N1 (stereo partly drawn) [(6R,S)-5,6,7,8-tetrahydrobiopterin]
- Toxicity as seen in the treatment of patients with Parkinson disease [1]: only slightly toxic

SMILES: C[C@H](O)[C@H](O)[C@H]1CNc2nc(N)[nH]c(=O)c2N1 [BH4 dihydrochloride]
- Acute oral toxicity, assessment in words [2]: practically non-toxic
- LD50 ([2]; rat, in vivo): > 2000 mg/kg

SMILES: C[C@H](O)[C@H](O)[C@H]1CNc2nc(N)[nH]c(=O)c2N1 [BH4, (6R)-L-erythro-5,6,7,8-tetrahydrobiopterin]
- Neurological parameters, overall result [3]: none exhibited a statistically significant improvement
- Subjective symptoms, overall result [4]: none showed a statistically significant improvement
- Effect on neurologic symptoms of Machado-Joseph disease, conclusion [5]: remarkable therapeutic efficacy; also recorded: effective in improving neurologic symptoms
- Effect on neurologic symptoms of Machado-Joseph disease, conclusion ([5]; listed as tetrahydrobiopterin): remarkable amelioration of the neurologic symptoms
